For four compounds, Activity results are on record in ChEMBL document CHEMBL1155650, “New oleanene triterpenoid saponins from Madhuca longifolia” (J Nat Prod, 2000).

For the assay, the species on record is Homo sapiens. Put plainly: Cytotoxicity against human Kato 3 cells. Type of assay: functional, cell-based.

Structures are written as SMILES. Active and inactive are the calls of the source. No cut-off for these calls is given here.

In the case of `CC1(C)CC[C@]2(C(=O)O[C@@H]3OC[C@H](O)[C@H](O)[C@H]3O)CC[C@]3(C)C(=CC[C@@H]4[C@@]5(C)C[C@H](O)[C@H](O)[C@@](C)(CO)[C@@H]5[C@H](O)C[C@]43C)[C@@H]2C1`, the result was inactive.

In the case of `C[C@@H]1O[C@@H](O[C@H]2[C@H](OC(=O)[C@]34CCC(C)(C)C[C@H]3C3=CC[C@@H]5[C@@]6(C)C[C@H](O)[C@H](O)[C@@](C)(CO)[C@@H]6[C@H](O)C[C@@]5(C)[C@]3(C)CC4)OC[C@H](O)[C@@H]2O)[C@H](O)[C@H](O)[C@H]1O`, the result was inactive.

Turning to `CC1(C)CC[C@]2(C(=O)O[C@@H]3OC[C@H](O)[C@H](O)[C@H]3O)CC[C@]3(C)C(=CC[C@@H]4[C@@]5(C)CC(=O)[C@H](O)[C@@](C)(CO)[C@@H]5[C@H](O)C[C@]43C)[C@@H]2C1`, the outcome was inactive.

As for `CC1(C)CC[C@]2(C(=O)O[C@@H]3OC[C@H](O)[C@H](O)[C@H]3O)CC[C@]3(C)C(=CC[C@@H]4[C@@]5(C)CC(=O)[C@H](O[C@@H]6O[C@H](CO)[C@@H](O)[C@H](O)[C@H]6O)[C@@](C)(CO)[C@@H]5[C@H](O)C[C@]43C)[C@@H]2C1`, the result was inactive.
